Activity calls are given as the source filed them. The calls are words filed in the database; no cut-off is given here.
Columns and labels:
Assay type in all cases: functional, organism-based
Staphylococcus aureus [1] = assay: Antimicrobial activity against Staphylococcus aureus 6538-P at 500 ppm after 24 hrs
Aspergillus niger [2] = assay: Antimicrobial activity against Aspergillus niger at 500 ppm after 24 hrs
Streptococcus pneumoniae [3] = assay: Antimicrobial activity against Pneumococcus clinical isolates at 500 ppm after 24 hrs
[4] = test system: Saccharomyces pastorianus; assay: Antimicrobial activity against Saccharomyces carlsbergensis at 500 ppm after 24 hrs
[5] = test system: Salmonella enterica subsp. enterica serovar Gallinarum; assay: Antimicrobial activity against Salmonella gallinarum X142 at 500 ppm after 24 hrs
Pseudomonas aeruginosa [6] = assay: Antimicrobial activity against Pseudomonas aeruginosa NCTC 10490 at 500 ppm after 24 hrs
Bacillus subtilis [7] = assay: Antimicrobial activity against Bacillus subtilis 6633 at 500 ppm after 24 hrs
Micrococcus luteus [8] = assay: Antimicrobial activity against Sarcina lutea 9341 at 500 ppm after 24 hrs
[9] = test system: Bordetella bronchiseptica; assay: Antimicrobial activity against Bordetella bronchiseptica 4614 at 500 ppm after 24 hrs
Escherichia coli [10] = assay: Antimicrobial activity against Escherichia coli 10536 at 500 ppm after 24 hrs
Staphylococcus aureus [11] = assay: Antimicrobial activity against penicillin-resistant Staphylococcus aureus at 500 ppm after 24 hrs
[12] = test system: Saccharomyces pastorianus; assay: Antimicrobial activity against Saccharomyces carlsbergensis at 5 ppm after 24 hrs
Streptococcus pneumoniae [13] = assay: Antimicrobial activity against Pneumococcus clinical isolates at 10 ppm after 48 hrs
Bacillus subtilis [14] = assay: Antimicrobial activity against Bacillus subtilis 6633 at 10 ppm after 48 hrs
Staphylococcus aureus [15] = assay: Antimicrobial activity against Staphylococcus aureus 6538-P at 50 ppm after 48 hrs
[16] = test system: Saccharomyces pastorianus; assay: Antimicrobial activity against Saccharomyces carlsbergensis at 50 ppm after 24 hrs
Streptococcus pneumoniae [17] = assay: Antimicrobial activity against Pneumococcus clinical isolates at 200 ppm after 48 hrs
[18] = test system: Salmonella enterica subsp. enterica serovar Gallinarum; assay: Antimicrobial activity against Salmonella gallinarum X142 at 200 ppm after 24 hrs
Staphylococcus aureus [19] = assay: Antimicrobial activity against Staphylococcus aureus 6538-P at 200 ppm after 48 hrs
[20] = test system: Saccharomyces pastorianus; assay: Antimicrobial activity against Saccharomyces carlsbergensis at 10 ppm after 24 hrs
Escherichia coli [21] = assay: Antimicrobial activity against Escherichia coli 10536 at 10 ppm after 24 hrs
[22] = test system: Bordetella bronchiseptica; assay: Antimicrobial activity against Bordetella bronchiseptica 4614 at 200 ppm after 48 hrs
Escherichia coli [23] = assay: Antimicrobial activity against Escherichia coli 10536 at 50 ppm after 24 hrs
[24] = test system: Saccharomyces pastorianus; assay: Antimicrobial activity against Saccharomyces carlsbergensis at 100 ppm after 24 hrs
Bacillus subtilis [25] = assay: Antimicrobial activity against Bacillus subtilis 6633 at 5 ppm after 24 hrs
Staphylococcus aureus [26] = assay: Antimicrobial activity against penicillin-resistant Staphylococcus aureus at 50 ppm after 24 hrs
[27] = test system: Bordetella bronchiseptica; assay: Antimicrobial activity against Bordetella bronchiseptica 4614 at 10 ppm after 48 hrs
Staphylococcus aureus [28] = assay: Antimicrobial activity against penicilln-resistant Staphylococcus aureus at 100 ppm after 24 hrs
[29] = test system: Salmonella enterica subsp. enterica serovar Gallinarum; assay: Antimicrobial activity against Salmonella gallinarum X142 at 10 ppm after 24 hrs
Escherichia coli [30] = assay: Antimicrobial activity against Escherichia coli 10536 at 100 ppm after 24 hrs
[31] = test system: Bordetella bronchiseptica; assay: Antimicrobial activity against Bordetella bronchiseptica 4614 at 50 ppm after 48 hrs
Micrococcus luteus [32] = assay: Antimicrobial activity against Sarcina lutea 9341 at 200 ppm after 48 hrs
Staphylococcus aureus [33] = assay: Antimicrobial activity against Staphylococcus aureus 6538-P at 100 ppm after 48 hrs
Escherichia coli [34] = assay: Antimicrobial activity against Escherichia coli 10536 at 200 ppm after 24 hrs
[35] = test system: Salmonella enterica subsp. enterica serovar Gallinarum; assay: Antimicrobial activity against Salmonella gallinarum X142 at 100 ppm after 24 hrs
Staphylococcus aureus [36] = assay: Antimicrobial activity against penicilln-resistant Staphylococcus aureus at 10 ppm after 24 hrs
Micrococcus luteus [37] = assay: Antimicrobial activity against Sarcina lutea 9341 at 5 ppm after 24 hrs
[38] = test system: Salmonella enterica subsp. enterica serovar Gallinarum; assay: Antimicrobial activity against Salmonella gallinarum X142 at 50 ppm after 24 hrs
Aspergillus niger [39] = assay: Antimicrobial activity against Aspergillus niger at 200 ppm after 24 hrs
Pseudomonas aeruginosa [40] = assay: Antimicrobial activity against Pseudomonas aeruginosa NCTC 10490 at 10 ppm after 48 hrs
Micrococcus luteus [41] = assay: Antimicrobial activity against Sarcina lutea 9341 at 50 ppm after 24 hrs
Aspergillus niger [42] = assay: Antimicrobial activity against Aspergillus niger at 10 ppm after 24 hrs
Bacillus subtilis [43] = assay: Antimicrobial activity against Bacillus subtilis 6633 at 50 ppm after 48 hrs
Micrococcus luteus [44] = assay: Antimicrobial activity against Sarcina lutea 9341 at 10 ppm after 24 hrs
Escherichia coli [45] = assay: Antimicrobial activity against Escherichia coli 10536 at 5 ppm after 24 hrs
[46] = test system: Saccharomyces pastorianus; assay: Antimicrobial activity against Saccharomyces carlsbergensis at 200 ppm after 24 hrs
Pseudomonas aeruginosa [47] = assay: Antimicrobial activity against Pseudomonas aeruginosa NCTC 10490 at 50 ppm after 48 hrs
Staphylococcus aureus [48] = assay: Antimicrobial activity against penicillin-resistant Staphylococcus aureus at 200 ppm after 24 hrs
Staphylococcus aureus [49] = assay: Antimicrobial activity against Staphylococcus aureus 6538-P at 10 ppm after 48 hrs
Aspergillus niger [50] = assay: Antimicrobial activity against Aspergillus niger at 50 ppm after 24 hrs
[51] = test system: Bordetella bronchiseptica; assay: Antimicrobial activity against Bordetella bronchiseptica 4614 at 5 ppm after 24 hrs
Aspergillus niger [52] = assay: Antimicrobial activity against Aspergillus niger at 100 ppm after 24 hrs
[53] = test system: Salmonella enterica subsp. enterica serovar Gallinarum; assay: Antimicrobial activity against Salmonella gallinarum X142 at 5 ppm after 24 hrs
Pseudomonas aeruginosa [54] = assay: Antimicrobial activity against Pseudomonas aeruginosa NCTC 10490 at 200 ppm after 48 hrs
Streptococcus pneumoniae [55] = assay: Antimicrobial activity against Pneumococcus clinical isolates at 50 ppm after 48 hrs
Bacillus subtilis [56] = assay: Antimicrobial activity against Bacillus subtilis 6633 at 100 ppm after 48 hrs
[57] = test system: Bordetella bronchiseptica; assay: Antimicrobial activity against Bordetella bronchiseptica 4614 at 100 ppm after 48 hrs
Aspergillus niger [58] = assay: Antimicrobial activity against Aspergillus niger at 5 ppm after 24 hrs
Staphylococcus aureus [59] = assay: Antimicrobial activity against penicillin-resistant Staphylococcus aureus at 5 ppm after 24 hrs
Bacillus subtilis [60] = assay: Antimicrobial activity against Bacillus subtilis 6633 at 200 ppm after 48 hrs
Streptococcus pneumoniae [61] = assay: Antimicrobial activity against Pneumococcus clinical isolates at 100 ppm after 48 hrs
Pseudomonas aeruginosa [62] = assay: Antimicrobial activity against Pseudomonas aeruginosa NCTC 10490 at 100 ppm after 48 hrs

With `C=CC(C)(C)c1c(O)c2c(c3ccc(=O)oc13)OC(C)(C)CC2=O` the Activity (Staphylococcus aureus [1]) was “inactive”, the Activity (Aspergillus niger [2]) was “inactive” and the Activity (Streptococcus pneumoniae [3]) was “inactive”. For the same compound, the Activity [4] was “inactive”, the Activity [5] was “inactive” and the Activity (Pseudomonas aeruginosa [6]) was “inactive”. For the same compound, the Activity (Bacillus subtilis [7]) was “inactive”, the Activity (Micrococcus luteus [8]) was “inactive” and the Activity [9] was “inactive”. The Activity (Escherichia coli [10]) was “inactive” and the Activity (Staphylococcus aureus [11]) was “inactive”.
`C=CC(C)(C)c1c(O)c(/C=C/C(=O)O)c2c(c1O)C(=O)CC(C)(C)O2` was tested, and the Activity (Staphylococcus aureus [1]) was “inactive”, the Activity (Aspergillus niger [2]) was “inactive” and the Activity (Streptococcus pneumoniae [3]) was “inactive”. The Activity [4] was “inactive”, the Activity [5] was “inactive” and the Activity (Pseudomonas aeruginosa [6]) was “inactive”. The Activity (Bacillus subtilis [7]) was “inactive”, the Activity (Micrococcus luteus [8]) was “inactive” and the Activity [9] was “inactive”. The Activity (Escherichia coli [10]) was “inactive” and the Activity (Staphylococcus aureus [11]) was “inactive”.
With `C=CC(C)(C)c1cc2c(O)c3c(c(C(C)(C)C=C)c2oc1=O)OC(C)(C)C=C3` the Activity (Staphylococcus aureus [1]) was “inactive”, the Activity (Aspergillus niger [2]) was “inactive” and the Activity (Streptococcus pneumoniae [3]) was “inactive”. The Activity [4] was “inactive”, the Activity [5] was “inactive” and the Activity (Pseudomonas aeruginosa [6]) was “inactive”. The Activity (Bacillus subtilis [7]) was “inactive”, the Activity (Micrococcus luteus [8]) was “inactive” and the Activity [9] was “inactive”. The Activity (Escherichia coli [10]) was “inactive” and the Activity (Staphylococcus aureus [11]) was “inactive”.
For `C=CC(C)(C)c1c2c(c(O)c3ccc(=O)oc13)C=CC(C)(C)O2`, the Activity [12] was “inactive”, the Activity (Streptococcus pneumoniae [13]) was “Active” and the Activity (Bacillus subtilis [14]) was “Active”. The Activity (Staphylococcus aureus [15]) was “Active”, the Activity [16] was “inactive” and the Activity (Streptococcus pneumoniae [17]) was “Active”. For the same compound, the Activity [18] was “inactive”, the Activity (Staphylococcus aureus [19]) was “Active” and the Activity [4] was “inactive”. For the same compound, the Activity [20] was “inactive”, the Activity (Escherichia coli [21]) was “inactive” and the Activity [22] was “Active”. The Activity (Escherichia coli [23]) was “inactive”, the Activity [24] was “inactive” and the Activity (Bacillus subtilis [25]) was “inactive”. The Activity (Staphylococcus aureus [26]) was “inactive”, the Activity [27] was “Active” and the Activity (Staphylococcus aureus [28]) was “inactive”. The Activity [29] was “inactive”, the Activity (Escherichia coli [30]) was “inactive” and the Activity [31] was “Active”. The Activity (Micrococcus luteus [32]) was “Active”, the Activity (Staphylococcus aureus [33]) was “Active” and the Activity (Escherichia coli [34]) was “inactive”. The Activity [35] was “inactive”, the Activity (Staphylococcus aureus [36]) was “inactive” and the Activity (Micrococcus luteus [37]) was “inactive”. The Activity [38] was “inactive”, the Activity (Aspergillus niger [39]) was “inactive” and the Activity (Pseudomonas aeruginosa [40]) was “Active”. For the same compound, the Activity (Micrococcus luteus [41]) was “inactive”, the Activity (Aspergillus niger [42]) was “inactive” and the Activity (Bacillus subtilis [43]) was “Active”. For the same compound, the Activity (Micrococcus luteus [44]) was “inactive”, the Activity (Escherichia coli [45]) was “inactive” and the Activity [46] was “inactive”. For the same compound, the Activity (Pseudomonas aeruginosa [47]) was “Active”, the Activity (Staphylococcus aureus [48]) was “inactive” and the Activity (Staphylococcus aureus [49]) was “Active”. For the same compound, the Activity (Aspergillus niger [50]) was “inactive”, the Activity [51] was “inactive” and the Activity (Aspergillus niger [52]) was “inactive”. For the same compound, the Activity [53] was “inactive”, the Activity (Pseudomonas aeruginosa [54]) was “Active” and the Activity (Streptococcus pneumoniae [55]) was “Active”. For the same compound, the Activity (Bacillus subtilis [56]) was “Active”, the Activity [57] was “Active” and the Activity (Aspergillus niger [58]) was “inactive”. The Activity (Staphylococcus aureus [59]) was “inactive”, the Activity (Bacillus subtilis [60]) was “Active” and the Activity (Streptococcus pneumoniae [61]) was “Active”. The Activity (Pseudomonas aeruginosa [62]) was “Active”.
With `COc1c2c(cc3oc(=O)ccc13)OC(C)(C)C=C2` the Activity (Staphylococcus aureus [1]) was “inactive”, the Activity (Aspergillus niger [2]) was “inactive” and the Activity (Streptococcus pneumoniae [3]) was “inactive”. The Activity [4] was “inactive”, the Activity [5] was “inactive” and the Activity (Pseudomonas aeruginosa [6]) was “inactive”. The Activity (Bacillus subtilis [7]) was “inactive”, the Activity (Micrococcus luteus [8]) was “inactive” and the Activity [9] was “inactive”. The Activity (Escherichia coli [10]) was “inactive” and the Activity (Staphylococcus aureus [11]) was “inactive”.

From ChEMBL document CHEMBL1151405, “Biological and phytochemical investigation of Clausena excavata” (J Nat Prod, 1982)
